Reference: the NIST ThermoML archive (doi:10.1021/je301103d)

How the values were obtained:
[1] = 101.33 kPa, Liquid; for viscosity: Cone and plate viscometry; for mass density: Vibrating tube method; for electrical conductivity: conductivity meter (DDJS-308A)
[2] = refractive index (Na D-line) (dimensionless); conditions: 101.33 kPa, Liquid, Standard Abbe refractometry

C[N+](C)(C)CCO.O=C([O-])[C@@H]1CCCN1 [2-hydroxy-N,N,N-trimethylethanaminium L-prolinate]
Conditions | electrical conductivity, [1] [S/m] | mass density, [1] [kg/m3] | refractive index, [2] | viscosity, [1] [mPa·s]
293.15 K | – | – | 1.5419 | –
298.15 K | 3e-05 | 1121.04 | 1.5408 | 10644
303.15 K | 0.00013 | 1118.21 | 1.5402 | 5437.3
308.15 K | 0.00035 | 1115.35 | 1.539 | 2824.6
313.15 K | 0.0007 | 1112.49 | 1.5379 | 1515.3
318.15 K | 0.0013 | 1109.61 | 1.5367 | 839.1
323.15 K | 0.00204 | 1106.69 | 1.5355 | 463.5
328.15 K | 0.00291 | – | 1.5344 | 307
333.15 K | 0.00435 | 1100.61 | 1.5329 | 163.7
338.15 K | 0.00552 | 1097.81 | 1.5317 | 114
343.15 K | 0.00649 | 1095.03 | 1.5306 | 70.1
348.15 K | 0.00779 | 1092.12 | – | 46.3
353.15 K | 0.00941 | 1089.39 | – | 33.7

C[N+](C)(C)CCO.NCCC(=O)[O-] [2-hydroxy-N,N,N-trimethylethanaminium β-alaninate]
Conditions | electrical conductivity, [1] [S/m] | mass density, [1] [kg/m3] | refractive index, [2] | viscosity, [1] [mPa·s]
293.15 K | – | – | 1.5322 | –
298.15 K | 0.00071 | 1120.29 | 1.5313 | 5092.1
303.15 K | 0.00143 | 1117.51 | 1.5306 | 3022.2
308.15 K | 0.00268 | 1114.55 | 1.5294 | 1820.4
313.15 K | 0.00494 | 1111.77 | 1.5285 | 1146.2
318.15 K | 0.00907 | 1108.98 | 1.5277 | 723.2
323.15 K | 0.0134 | 1106.2 | 1.5266 | 470.7
328.15 K | 0.0178 | 1103.43 | 1.526 | 322.4
333.15 K | 0.0227 | 1100.63 | 1.5249 | 220.7
338.15 K | 0.0295 | 1097.83 | 1.5238 | 155.9
343.15 K | 0.0379 | 1095.04 | 1.5225 | 112
348.15 K | 0.0496 | 1092.32 | – | 79.3
353.15 K | 0.0615 | 1089.6 | – | 56.7

C[N+](C)(C)CCO.N[C@@H](CO)C(=O)[O-] [2-hydroxy-N,N,N-trimethylethanaminium L-serinate]
Conditions | electrical conductivity, [1] [S/m] | mass density, [1] [kg/m3] | refractive index, [2] | viscosity, [1] [mPa·s]
293.15 K | – | – | 1.5447 | –
298.15 K | 0.00093 | 1191.51 | 1.5429 | 11544
303.15 K | 0.00145 | 1188.65 | 1.5416 | 6543.1
308.15 K | 0.00229 | 1185.79 | 1.5408 | 3793.3
313.15 K | 0.00359 | 1182.9 | 1.5397 | 2186.5
318.15 K | 0.00553 | 1179.92 | 1.5388 | 1306
323.15 K | 0.00833 | 1176.87 | 1.5382 | 811.5
328.15 K | 0.0122 | 1173.97 | 1.5366 | 522.9
333.15 K | 0.0175 | 1171.2 | 1.5349 | 346.6
338.15 K | 0.0266 | 1168.38 | 1.5341 | 237.7
343.15 K | 0.037 | 1165.5 | 1.5326 | 167.5
348.15 K | 0.0495 | 1162.54 | – | 120.1
353.15 K | 0.0688 | 1159.37 | – | 90.2

C[C@H](N)C(=O)[O-].C[N+](C)(C)CCO [2-hydroxy-N,N,N-trimethylethanaminium L-alaninate]
Conditions | electrical conductivity, [1] [S/m] | mass density, [1] [kg/m3] | refractive index, [2] | viscosity, [1] [mPa·s]
293.15 K | – | – | 1.5146 | –
298.15 K | 0.00213 | 1112.94 | 1.514 | 385.6
303.15 K | 0.00577 | 1110.07 | 1.5127 | 234.9
308.15 K | 0.00907 | 1107.01 | 1.5118 | 136.8
313.15 K | 0.0126 | 1104.04 | 1.5105 | 89
318.15 K | 0.017 | 1101.21 | 1.5094 | 51.8
323.15 K | 0.0249 | 1098.37 | 1.5084 | 31.5
328.15 K | 0.0309 | 1095.54 | 1.5072 | 21.5
333.15 K | 0.0397 | 1092.69 | 1.506 | 14
338.15 K | 0.0518 | 1089.85 | 1.5052 | 10
343.15 K | 0.0655 | 1087.04 | 1.5041 | 7.4
348.15 K | 0.0822 | 1084.27 | – | 5.7
353.15 K | 0.101 | 1081.51 | – | 4.4

C[N+](C)(C)CCO.NCC(=O)[O-] [2-hydroxy-N,N,N-trimethylethanaminium glycinate]
Conditions | electrical conductivity, [1] [S/m] | mass density, [1] [kg/m3] | refractive index, [2] | viscosity, [1] [mPa·s]
293.15 K | – | – | 1.5238 | –
298.15 K | 0.00677 | 1145.2 | 1.5224 | 182.3
303.15 K | 0.0104 | 1142.31 | 1.5213 | 119.9
308.15 K | 0.0147 | 1139.43 | 1.5204 | 84.3
313.15 K | 0.022 | 1136.7 | 1.5194 | 50.2
318.15 K | 0.0292 | 1133.97 | 1.5182 | 29.4
323.15 K | 0.0388 | 1131.22 | 1.5171 | 19.9
328.15 K | 0.0497 | 1128.46 | 1.5158 | 14.3
333.15 K | 0.0609 | 1125.7 | 1.5148 | 10.4
338.15 K | 0.0781 | 1122.93 | 1.5137 | 7.2
343.15 K | 0.0993 | 1120.22 | 1.5125 | 5.5
348.15 K | 0.122 | 1117.53 | – | 4.3
353.15 K | 0.15 | 1114.83 | – | 3.5
